From PubChem BioAssay AID463229 (Broad Institute, 2010)

test system: INS-1E rat beta cells, no cytokines, CellTiter-Glo ATP, 48 h; test: cytokine-free beta-cell viability effect – INS-1E rat cells, ATP luminescence, cherry pick, counter-screen for beta-cell apoptosis protection project, dose response (AID 463229)

Compound | AC50 [µM]
CCN(CC)c1ccc(/C=N/NC(=O)c2ccoc2C)c(O)c1 | 2.04
Cc1cc(C)cc(Oc2cc(NC(=O)c3cn(C)nc3C)cc([N+](=O)[O-])c2)c1 | 2.58
Cc1ccccc1CNc1ccc(C(CC(N)=O)NC(=O)c2ccc(Br)cc2)cc1[N+](=O)[O-] (stereo unspecified) | 15.7
CCCOc1ccc(Br)cc1CSC(=N)N | 8.01
O=C(N/N=C/c1c(O)ccc2ccccc12)c1cccnc1 | 4.07
COc1ccccc1OCCCCOc1ccccc1C(C)=O | 23
Cc1ccc(OCCN2CCN(c3ncnc4sc(C)c(C)c34)CC2)cc1 | 4.03
Cc1nnsc1C(=O)N/N=C/c1ccc2ccccc2c1O | 1.81
COc1ccc(CNC[C@@H](CCCCN(C)Cc2ccc(OC)cc2)N2C[C@H](c3ccccc3)N(CCc3ccc(Cl)c(Cl)c3)C(=O)C2=O)cc1 | 7.17
CC1=NN(c2nc(-c3ccc(C)cc3)cs2)C(=O)C1N=Nc1ccc(C(N)=O)cc1 (stereo unspecified) | 3.53
COC(=O)[C@H](Cc1ccccc1)N(Cc1ccccc1)S(=O)(=O)N(Cc1ccccc1)[C@@H](Cc1ccccc1)C(=O)OC | 4.38
CC(NC(=O)c1cc(COc2ccc3ncccc3c2)on1)c1ccc(F)cc1 (stereo unspecified) | 5.86
Oc1c(CN2CCN(c3ccccn3)CC2)cc(Cl)c2cccnc12 | 5.4
CCS(=O)(=O)c1ncc(Cl)c(C(=O)Nc2ccc(S(=O)(=O)N3CCC(C)CC3)cc2)n1 | 7.4
Cc1cc(C)nc(N/N=C/c2cc(Br)ccc2O)n1 | 12.6
Fc1ccccc1/C=N/Nc1nc(-c2ccccn2)nc2ccccc12 | 3.49
O=C(N/N=C/c1cc(Cl)ccc1O)C(=O)Nc1ccccc1OC(F)(F)C(F)F | 8.81
CCCCSc1ccc(NC(=O)c2cccnc2)cc1 | 14.7
CC1(C)C[C@@H]2C[C@@](C)(CN2C(=O)c2cc(COc3cccc(C(F)(F)F)c3)on2)C1 | 17
COc1ccc(/C(C)=N/Nc2nc(C)cc(-c3ccccc3)n2)cc1 | 9.59
CCOc1ccccc1NC(=O)c1nc(S(=O)(=O)Cc2cccc(C)c2)ncc1Cl | 7.91
COc1cccc(/C=N/Nc2cc(N3CCOCC3)ncn2)c1O | 14.2

Compound | AC50 [µM]
Clc1cc2cccnc2c2ncccc12 | 15
O=C(NCc1cccnc1)/C(=C\c1ccc(-c2ccc(Cl)c(Cl)c2)o1)S(=O)(=O)c1ccccc1 | 4.62
CCOc1ccc(C(=O)N/N=C(\c2ccccc2)c2ccccn2)cc1 | 4.89
COc1ccc(OC)c(NC(=O)CSc2nnc(-c3cccnc3)s2)c1 | 7.37
COc1ccccc1N1CCN(Cc2ccc(O)c3ncccc23)CC1 | 5.14
CCCCCCCCNC(C)C(O)c1ccc(SC(C)C)cc1 (stereo unspecified) | 10.5
Cc1cc(=O)[nH]c(N/N=C/c2ccccn2)n1 | 5.21
CCN1CCN(CCCNC(=O)c2ccc3c(c2)NC(=O)/C(=C\c2cccc(C)c2)S3)CC1 | 12.3
Cc1cccc(CNc2ncnc3ccc(-c4ccc5c(c4)OCCO5)cc23)c1 | 7.27
NNc1ncnc2scc(-c3ccc(Cl)cc3)c12 | 14.5
CCCCCc1cc(=O)oc2c(C(CCN(CC)CC)c3ccc(OC)cc3)c(OC)cc(OC)c12 (stereo unspecified) | 14
Oc1ccc2ccccc2c1/C=N/Nc1nnc(-c2ncc[nH]2)c2ccccc12 | 3.39
CCSc1ccc(NC(=O)c2cccnc2)cc1 | 11.1
O=C(NCc1cccnc1)c1cc(-c2ccco2)on1 | 2.27
CCCOC(=O)c1ccc(-[n+]2c(-c3ccccc3)cc(-c3ccccc3)cc2-c2ccccc2)cc1 | 2.15
N#Cc1ccc(NC(=O)Nc2ccc(Cl)cc2)cc1 | 6.57
COc1ccc(-n2c(CNc3ccc(C)cc3)nnc2SCC(=O)Nc2nc(-c3ccccc3)cs2)cc1 | 12.7
O=C(COc1ccc2ccccc2c1)N1CCN(Cc2c[nH]c3ccccc23)CC1 | 2.8
Oc1c(C(c2ccccc2Cl)N2CCCC2)ccc2cccnc12 (stereo unspecified) | 7.11
Cc1ccc(C2C(C=Nc3c(C)n(C)n(-c4ccccc4)c3=O)=C(c3ccccc3)Oc3ccccc32)cc1 (stereo unspecified) | 7.38
O=C(Nc1ccc(Cl)cc1)Nc1csc([N+](=O)[O-])c1 | 7.65
N#CC1=C(N)N2C(=C(C#N)C1c1ccc(Br)cc1)Nc1ccccc12 (stereo unspecified) | 1.87

Compound | AC50 [µM]
Cc1csc2ncnc(N3CCN(S(=O)(=O)c4cccc(C(F)(F)F)c4)CC3)c12 | 5.81
COc1ccc(C(NC(C)=O)c2ccc3cccnc3c2O)c(OC)c1 (stereo unspecified) | 4.24
N#Cc1c([N+](=O)[O-])cc([N+](=O)[O-])cc1S(=O)(=O)Cc1ccccc1 | 4.91
C[n+]1c2n(c3ccccc31)N=C(c1ccc(Cl)cc1)CS2 | 4.29
Oc1ccc(Br)cc1-c1cc(-c2ccc(Cl)cc2)n[nH]1 | 11.1
CN(C)c1nc(N/N=C/c2ccccc2O)nc(Nc2ccc(F)cc2)n1 | 11.3
N=c1c2c(-c3ccccc3)c(-c3ccccc3)n(Cc3ccco3)c2ncn1CCCN1CCOCC1 | 16.2
Cc1ccc(C(C)C)c(OCc2ccc(C(=O)N/N=C/c3ccc(O)cc3O)cc2)c1 | 3.99
CCCCNc1c(-c2ccc(OC)c(SC(C)CC)c2)nc2ccc(C)cn12 (stereo unspecified) | 4.44
CCCn1c(Nc2nc3ccccc3n2C)nc2ccccc21 | 7.26
CCc1c(C2(O)CCCCC2)[nH]c2cc(C(F)(F)F)ccc12 | 11
Cc1cc(N/N=C\c2ccc(Br)cc2)nc(-n2nc(C)cc2C)n1 | 21.5
COc1cccc(-c2nc(-c3ccc(NC(=O)c4cccnc4)cc3)no2)c1 | 2.14
Cc1ccc(-c2[nH]ncc2/C=N/n2c(COc3ccccc3C)nc3ccccc3c2=O)cc1 | 8.38
COC(=O)c1ccc2c(=O)n(-c3ccccc3)c(SCN3C(=O)c4ccccc4C3=O)nc2c1 | 3.86
Cc1ccc(NC(=O)C2CCN(S(=O)(=O)c3ccc(N4CCCC4=O)cc3)CC2)cc1Cl | 2.37
COc1ccc2[nH]c3c(C)c4ccncc4c(C)c3c2c1 | 4.13
NC(N)=NC(N)=Nc1ccc(SC(F)(F)F)cc1 | 2.76
COc1ccc(C)cc1Nc1n[n+](-c2ccccc2)c(-c2c(Cl)cccc2Cl)s1 | 4.15
Cc1ccc(C2CC(c3ccc(C)cc3)n3nc(N)nc3N2)cc1 (stereo unspecified) | 17.9
Cc1ccc(NS(=O)(=O)c2cc([N+](=O)[O-])ccc2NNC(=S)Nc2cc(C)ccc2C)c(C)c1 | 4.65
NC1=C(Br)C(=O)c2ccccc2C1=O | 18.2

Compound | AC50 [µM]
CCN1CCN(Cc2ccc(NC(=O)c3cc(NC(=O)C(=O)c4c[nH]c5ccccc45)cc(OC)c3)cc2C(F)(F)F)CC1 | 7.12
Cc1ccc(S(=O)(=O)/N=C2\C=C(Nc3ccc(O)cc3)C(=O)c3ccccc32)cc1 | 1.91
COc1ccc(O)c(/C=N/NC(=O)c2ccc(OCc3cccc(Br)c3)cc2)c1 | 19.8
CCn1c(-c2ccc(C)cc2)nn(CC(=O)NCCc2ccccc2)c1=S | 7.22
CCN(CC)S(=O)(=O)c1cc([N+](=O)[O-])ccc1NNC(=O)Nc1ccc(Cl)c(Cl)c1 | 6.54
CCOC(=O)c1cnc(-n2nc(C)cc2C)nc1NNc1nc(-c2ccccc2)cc(-c2ccccc2)n1 | 4.09
COc1ccc(N=Nc2ccc(O)c3ncccc23)cc1 | 4.26
NCCCn1c(C(=O)c2cc(Cl)c(N)c(Cl)c2)c2ccc([N+](=O)[O-])cc2[n+]1[O-] | 5.34
Cc1ccc(-c2nc(C(Cl)Cl)c3ccccc3n2)cc1 | 3.51
O=C(N/N=C(\c1ccccc1)c1cccnc1)c1cccc(F)c1 | 2.56
Oc1ccc2ccccc2c1N=Nc1ccccn1 | 4.14
C#CCOCCOCCOCCNc1nc(N2CCN(C(=O)CCCCCCCCCCNC(=O)[C@H](CCCCN)n3cc(C[C@@H](C)CC)nn3)CC2)nc(N2CCN(C(=O)CCCCCCCCCCNC(=O)[C@@H]([C@H](C)O)n3cc(C)nn3)CC2)n1 | 6.91
Cc1nn(C)c(C)c1CN(Cc1nc(CCC(C)C)no1)C(C)C | 4.22
C#CCOCCOCCOCCNc1nc(N2CCN(C(=O)CCCCCCCCCCNC(=O)[C@H](CCCCN)n3cc(CCO)nn3)CC2)nc(N2CCN(C(=O)CCCCCCCCCCNC(=O)[C@H](CCCCN)n3cc(C[C@@H](C)CC)nn3)CC2)n1 | 10.6
O=C(NC(NC(=S)Nc1ccc(Cl)cc1Cl)C(Cl)(Cl)Cl)c1cccc([N+](=O)[O-])c1 (stereo unspecified) | 7.31
OC(CNCCC1C=Nc2ccccc21)Cn1c2ccc(Cl)cc2c2cc(Cl)ccc21 (stereo unspecified) | 7.93
CCN(CC)c1ccc(/C=N/NC(=O)CNC(=O)C2COc3ccccc3O2)c(O)c1 (stereo unspecified) | 5.41
C1=C(CCNc2ncnc3c2[nH]c2ccccc23)CCCC1 | 0.489
Cc1cc([N+](=O)[O-])nn1Cc1ccc(C(=O)N/N=C/c2ccc(O)cc2O)cc1 | 6.27
Cc1c2ccncc2c(C)c2c1[nH]c1ccccc12 | 5.21
CC(Nc1ncnc2ccccc12)c1ccccc1 (stereo unspecified) | 3.58
COC(=O)c1cc(O)cc(OC)c1Oc1cc(C)cc(O)c1C(=O)O | 5.37

Compound | AC50 [µM]
CCC(=O)NC(c1cc(Cl)c2cccnc2c1O)C(C)C (stereo unspecified) | 7.3
COc1nc(Nc2nc3ccccc3c(=O)[nH]2)nc2ccc(C)cc12 | 2.31
CN(C)CCOc1ccc(-c2c(-c3ccccc3)sc3ccccc23)cc1 | 12.8
Cc1cccc2sc(NNC(=O)c3ccc(S(=O)(=O)N4CCc5ccccc5C4)cc3)nc12 | 3.93
COc1ccc(Cc2nc(-c3ccc(NC(=O)c4cccnc4)cc3)no2)cc1 | 0.286
Cc1ccc2cc(C3C(C#N)=C(N)Oc4c3ccc3cccnc43)c(=O)[nH]c2c1 (stereo unspecified) | 5.81
CC1CN(CC(O)COC(c2ccc(Cl)cc2)c2ccc(Cl)cc2)CC(C)O1 (stereo unspecified) | 14.2
COc1ccc(-c2nc(-c3ccccn3)no2)cc1 | 3.11
CCCCCCSc1ccc([C@H]2N[C@@](Cc3ccccc3)(C(=O)OC)[C@H]3C(=O)N(C)C(=O)[C@@H]23)cc1 | 14.6
Cc1nc(N/N=C/c2ccccn2)sc1C | 9.42
COc1ccc(-[n+]2c(-c3ccccc3)cc(-c3ccccc3)cc2-c2ccccc2)cc1 | 1.71
Cc1cc(S(=O)(=O)NCc2ccncc2)c(C)cc1Br | 6.19
COc1ccc(CCNc2ncnc3sc(C)cc23)cc1OC | 1.33
CCCOc1nc2c(c(=O)n(C)c(=O)n2C)n1Cc1cccc2ccccc12 | 14.4
Oc1ccc(N=Nc2ccc3c(c2)OCCO3)c2ncccc12 | 3.75
Cc1ccc(Nc2c(-c3ccccn3)nc3cc(C)ccn23)cc1 | 7.49
CC(C)c1ccccc1-n1c(SCC(=O)N2CCc3ccccc3C2)nc2ccccc2c1=O | 2.42
CN1/C(=C\C(=O)c2ccco2)C(C)(C)c2ccccc21 | 7.58
